Values quoted from earlier work as cited in US7618965B2, “(Arylamidoanilino)nitroethylene compounds” (OSI Pharmaceuticals, Inc., priority 2004, dated 2009).
Counter-ions that a name gives are not always drawn.

Assays:
[1] = system: MO7e human leukemia cells
[2] = system: MO7e human leukemia cells; remark: listed apart in the source

In the case of `Cc1ccc(NC(=O)c2ccc(CN3CCN(C)CC3)cc2)cc1Nc1nccc(-c2cccnc2)n1` [Gleevec, imatinib mesylate], the “Kit ligand-stimulated growth of MO7e cells” value [1] is listed as “inhibited” and the “GM-CSF stimulated growth of MO7e cells” value [2] is listed as “not affected”.
